Data as given in the NIST ThermoML archive (doi:10.1016/j.fluid.2016.02.031).

Assay: xn = mol fraction of the nth substance listed
Conditions: 100 kPa, Liquid; for viscosity: Concentric cylinders viscometry; for mass density: Vibrating tube method

c1ccncc1 [pyridine] + CCC(C)=O
Conditions	mass density [kg/m3]	viscosity [mPa·s]
288.15 K, x1 = 0.1006	827.262	0.4555
288.15 K, x1 = 0.2019	844.704	0.4928
288.15 K, x1 = 0.3002	861.833	0.5309
288.15 K, x1 = 0.4004	879.307	0.5771
288.15 K, x1 = 0.4999	896.875	0.629
288.15 K, x1 = 0.597	914.2	0.6859
288.15 K, x1 = 0.6998	932.635	0.7603
288.15 K, x1 = 0.7945	949.796	0.8375
288.15 K, x1 = 0.8962	968.632	0.9269
288.15 K, x1 = 1	988.077	1.053
293.15 K, x1 = 0.1006	822.086	0.4381
293.15 K, x1 = 0.2019	839.557	0.4718
293.15 K, x1 = 0.3002	856.714	0.5088
293.15 K, x1 = 0.4004	874.211	0.5501
293.15 K, x1 = 0.4999	891.802	0.5983
293.15 K, x1 = 0.597	909.146	0.6505
293.15 K, x1 = 0.6998	927.59	0.7177
293.15 K, x1 = 0.7945	944.768	0.7876
293.15 K, x1 = 0.8962	963.61	0.8683
293.15 K, x1 = 1	983.053	0.9801
298.15 K, x1 = 0.1006	816.889	0.4203
298.15 K, x1 = 0.2019	834.388	0.4516
298.15 K, x1 = 0.3002	851.571	0.4867
298.15 K, x1 = 0.4004	869.094	0.5243
298.15 K, x1 = 0.4999	886.708	0.5689
298.15 K, x1 = 0.597	904.074	0.6164
298.15 K, x1 = 0.6998	922.541	0.6779
298.15 K, x1 = 0.7945	939.726	0.7418
298.15 K, x1 = 0.8962	958.58	0.8147
298.15 K, x1 = 1	978.02	0.9155
303.15 K, x1 = 0.1006	811.664	0.4019
303.15 K, x1 = 0.2019	829.195	0.4317
303.15 K, x1 = 0.3002	846.407	0.4649
303.15 K, x1 = 0.4004	863.96	0.5
303.15 K, x1 = 0.4999	881.597	0.5409
303.15 K, x1 = 0.597	898.986	0.5851
303.15 K, x1 = 0.6998	917.474	0.6402
303.15 K, x1 = 0.7945	934.676	0.6995
303.15 K, x1 = 0.8962	953.536	0.7669
303.15 K, x1 = 1	972.979	0.8568
308.15 K, x1 = 0.1006	806.406	0.3835
308.15 K, x1 = 0.2019	823.972	0.4117
308.15 K, x1 = 0.3002	841.216	0.4432
308.15 K, x1 = 0.4004	858.797	0.4758
308.15 K, x1 = 0.4999	876.465	0.5142
308.15 K, x1 = 0.597	893.873	0.555
308.15 K, x1 = 0.6998	912.381	0.6063
308.15 K, x1 = 0.7945	929.606	0.6588
308.15 K, x1 = 0.8962	948.477	0.7219
308.15 K, x1 = 1	967.923	0.8032
313.15 K, x1 = 0.1006	801.119	0.3653
313.15 K, x1 = 0.2019	818.72	0.392
313.15 K, x1 = 0.3002	835.996	0.4219
313.15 K, x1 = 0.4004	853.612	0.4528
313.15 K, x1 = 0.4999	871.309	0.4887
313.15 K, x1 = 0.597	888.742	0.5265
313.15 K, x1 = 0.6998	907.282	0.5741
313.15 K, x1 = 0.7945	924.517	0.6226
313.15 K, x1 = 0.8962	943.403	0.6809
313.15 K, x1 = 1	962.857	0.7546
318.15 K, x1 = 0.1006	795.798	0.3502
318.15 K, x1 = 0.2019	813.436	0.3728
318.15 K, x1 = 0.3002	830.749	0.401
318.15 K, x1 = 0.4004	848.397	0.4308
318.15 K, x1 = 0.4999	866.128	0.4642
318.15 K, x1 = 0.597	883.587	0.4996
318.15 K, x1 = 0.6998	902.151	0.544
318.15 K, x1 = 0.7945	919.408	0.5893
318.15 K, x1 = 0.8962	938.312	0.6417
318.15 K, x1 = 1	957.777	0.7103
323.15 K, x1 = 0.1006	790.436	0.3328
323.15 K, x1 = 0.2019	808.12	0.3539
323.15 K, x1 = 0.3002	825.467	0.3807
323.15 K, x1 = 0.4004	843.151	0.4095
323.15 K, x1 = 0.4999	860.918	0.4409
323.15 K, x1 = 0.597	878.406	0.4742
323.15 K, x1 = 0.6998	896.999	0.5159
323.15 K, x1 = 0.7945	914.28	0.5586
323.15 K, x1 = 0.8962	933.202	0.6072
323.15 K, x1 = 1	952.682	0.6698
328.15 K, x1 = 0.1006	785.039	0.3157
328.15 K, x1 = 0.2019	802.762	0.3354
328.15 K, x1 = 0.3002	820.152	0.361
328.15 K, x1 = 0.4004	837.875	0.3888
328.15 K, x1 = 0.4999	855.68	0.4185
328.15 K, x1 = 0.597	873.198	0.4502
328.15 K, x1 = 0.6998	891.821	0.4899
328.15 K, x1 = 0.7945	909.127	0.5297
328.15 K, x1 = 0.8962	928.07	0.5771
328.15 K, x1 = 1	947.564	0.6329
333.15 K, x1 = 0.1006	779.596	0.2989
333.15 K, x1 = 0.2019	797.367	0.3189
333.15 K, x1 = 0.3002	814.798	0.3422
333.15 K, x1 = 0.4004	832.563	0.3696
333.15 K, x1 = 0.4999	850.405	0.3985
333.15 K, x1 = 0.597	867.959	0.4291
333.15 K, x1 = 0.6998	886.618	0.4668
333.15 K, x1 = 0.7945	903.947	0.5039
333.15 K, x1 = 0.8962	922.92	0.549
333.15 K, x1 = 1	942.433	0.5997
